In brackets after ≈: the same amount, converted by molar mass. Read-outs that look alike come from different tables or passages of the source.
What was measured:
Experiment in all cases: Susceptibility testing (MIC, modified NCCLS method)
Staphylococcus aureus = format: cell-based
Description: (§1) The NCCLS (National Committee for Clinical Laboratory Standards) method to determine MIC's of antimicrobial compounds was modified for high-throughput screening. All stocks of tested compounds were prepared in either water or in dimethylsulfoxide (DMSO), depending on the solubility. […] Briefly 20 2-fold serial dilutions of testing compounds from the highest concentration were made in a 384-well microtiter plate. Each well was inoculated with testing bacteria in broth to a final concentration of approximately 1-1.5×10^6 cells/ml. Bacterial growth was determined by the increase of optical density at 600 nm using a microplate reader (Tecan SpectraFluor Plus).

K. pneumoniae = format: cell-based, Klebsiella pneumoniae
Description: as §1

E. cloacae = format: cell-based, Enterobacter cloacae; settings: E. cloacae ATCC 23355
Description: as §1

E. faecalis = format: cell-based, Enterococcus faecalis
Description: as §1

E. aerogenes = format: cell-based, Enterobacter aerogenes; settings: E. aerogenes ATCC 35028
Description: as §1

P. aeruginosa = format: cell-based, Pseudomonas aeruginosa
Description: as §1

E. coli N = format: cell-based, Escherichia coli; settings: E. coli (N)
Description: as §1

E. coli/TEM-1 = format: cell-based, Escherichia coli
Description: as §1

[1] = Staphylococcus aureus, ATCC11632, S. aureus ATCC 11632, read-out: MIC
[2] = Staphylococcus aureus, ATCC33594, S. aureus ATCC 33594, read-out: MIC
[3] = Staphylococcus aureus, ATCC700260, S. aureus ATCC 700260, read-out: MIC
[4] = Staphylococcus aureus, ATCC700699, S. aureus ATCC 700699, read-out: MIC
[5] = Klebsiella pneumoniae, ATCC51503, K. pneumoniae ATCC 51503, read-out: MIC
[6] = Klebsiella pneumoniae, ATCC700721, K. pneumoniae ATCC 700721, read-out: MIC
[7] = Enterobacter cloacae, ATCC23355, read-out: MIC
[8] = Enterococcus faecalis, ATCC49757, E. faecalis ATCC 49757, read-out: MIC
[9] = Enterococcus faecalis, ATCC700802, E. faecalis ATCC 700802, read-out: MIC
[10] = Klebsiella aerogenes, ATCC35028, read-out: MIC
[11] = Pseudomonas aeruginosa, ATCC21726, P. aeruginosa ATCC 21726, read-out: MIC
[12] = Pseudomonas aeruginosa, ATCC29872, P. aeruginosa ATCC 29872, read-out: MIC
[13] = Escherichia coli, read-out: MIC

Molecule | MIC (Staphylococcus aureus; [3]) [ng/mL] | MIC (Staphylococcus aureus; [4]) [ng/mL] | MIC (K. pneumoniae; [6]) [µg/mL] | MIC (P. aeruginosa; [11]) [µg/mL] | MIC (Staphylococcus aureus; S. aureus ATCC 11632) [ng/mL] | MIC (Staphylococcus aureus; S. aureus ATCC 33594) [ng/mL] | MIC (Staphylococcus aureus; S. aureus ATCC 700260) [ng/mL] | MIC (Staphylococcus aureus; S. aureus ATCC 700699) [ng/mL] | MIC (K. pneumoniae; K. pneumoniae ATCC 51503) [µg/mL] | MIC (K. pneumoniae; K. pneumoniae ATCC 700721) [µg/mL] | MIC (E. cloacae) [µg/mL] | MIC (E. faecalis; E. faecalis ATCC 49757) [µg/mL] | MIC (E. faecalis; E. faecalis ATCC 700802) [µg/mL] | MIC (E. aerogenes) [µg/mL] | MIC (P. aeruginosa; P. aeruginosa ATCC 21726) [µg/mL] | MIC (P. aeruginosa; P. aeruginosa ATCC 29872) [µg/mL] | MIC (E. coli N) [µg/mL] | MIC (E. coli/TEM-1; E. coli/Tem-1) [µg/mL] | other results
NC(C(=O)NC1C(=O)N2C(C(=O)O)=C(COc3cc(Cl)ccc3Oc3ccc(Cl)cc3Cl)CS[C@H]12)c1ccc(O)cc1 (some centres unmarked) [Compound 41, 3-(2-(2,4-Dichlorophenoxy)-5-chlorophenoxy)methyl-7-[2-amino-2-(4-hydroxy-phenyl)acetamido)-3-cephem-4-carboxylic acid] | 63 (≈ 0.0968 µM) | 63 (≈ 0.0968 µM) | 8 (≈ 12.3 µM) | > 32 |  |  |  |  |  |  |  |  |  |  |  |  |  |  | MIC (Staphylococcus aureus; [1]): 63 ng/mL (≈ 0.0968 µM); MIC (Staphylococcus aureus; [2]): 63 ng/mL (≈ 0.0968 µM); MIC (K. pneumoniae; [5]): 8 µg/mL (≈ 12.3 µM); MIC (E. cloacae; [7]): 1 µg/mL (≈ 1.54 µM); MIC (E. faecalis; [8]): 32 µg/mL (≈ 49.2 µM); MIC (E. faecalis; [9]): 32 µg/mL (≈ 49.2 µM); MIC (E. aerogenes; [10]): 4 µg/mL (≈ 6.15 µM); MIC (P. aeruginosa; [12]): > 32 µg/mL; MIC (E. coli N; [13]): 0.25 µg/mL (≈ 0.384 µM)
O=C(O)CCC(=O)N[C@@H]1C(=O)N2C(C(=O)O)=C(COc3cc(Cl)ccc3Oc3ccc(Cl)cc3Cl)CS[C@H]12 [Compound 36] | > 32000 | > 32000 | > 32 | > 32 |  |  |  |  |  |  |  |  |  |  |  |  |  |  | MIC (Staphylococcus aureus; [1]): > 32000 ng/mL; MIC (Staphylococcus aureus; Staphylococcus aureus, ATCC33591, S. aureus ATCC 33591, read-out: MIC): 2000 ng/mL (≈ 3.32 µM); MIC (Staphylococcus aureus; [2]): > 32000 ng/mL; MIC (K. pneumoniae; [5]): > 32 µg/mL; MIC (E. cloacae; [7]): > 32 µg/mL; MIC (E. faecalis; [8]): > 32 µg/mL; MIC (E. faecalis; [9]): > 32 µg/mL; MIC (E. aerogenes; [10]): > 32 µg/mL; MIC (P. aeruginosa; [12]): > 32 µg/mL
O=C(Cc1cnc[nH]1)NC1C(=O)N2C(C(=O)O)=C(COc3cc(Cl)ccc3Oc3ccc(Cl)cc3Cl)CS[C@H]12 (some centres unmarked) [Compound 31, 3-(2-(2,4-Dichlorophenoxy)-5-chlorophenoxy)methyl-7-[2-(3H-imidazol-4-yl)]-acetamido-3-cephem-4-carboxylic acid] |  |  |  |  | 16000 (≈ 26.2 µM) | 63 (≈ 0.103 µM) | 32000 (≈ 52.5 µM) | 32000 (≈ 52.5 µM) | 32 (≈ 52.5 µM) | 0.5 (≈ 0.82 µM) | 16 (≈ 26.2 µM) | 32 (≈ 52.5 µM) | >32 | 16 (≈ 26.2 µM) | >32 | >32 | 0.25 (≈ 0.41 µM) | 0.063 (≈ 0.103 µM) | MIC (Staphylococcus aureus; S. aureus ATCC 33591): 16000 ng/mL (≈ 26.2 µM)
CC(=O)NC1C(=O)N2C(C(=O)O)=C(COc3cc(Cl)ccc3Oc3ccc(Cl)cc3Cl)CSC12 (centres unmarked) [Compound 45] |  |  |  |  | >32000 | 63 (≈ 0.116 µM) | 63 (≈ 0.116 µM) | 16000 (≈ 29.4 µM) | 8 (≈ 14.7 µM) | 2 (≈ 3.68 µM) | >32 | 16 (≈ 29.4 µM) | 32 (≈ 58.8 µM) | >32 | >32 | >32 |  |  | 
3-(2-(2,4-Dichlorophenoxy)-5-chlorophenoxy)methyl-7-(1-phenyl-2-aminoacetamido)-3-cephem-4-carboxylic acid [Compound 37] |  |  |  |  |  |  | 3.9 |  |  | 8 |  |  |  |  | >16 |  | 4 | 0.12 | 
NC(C(=O)NC1C(=O)N2C(C(=O)O)=C(COc3cc(Cl)ccc3Oc3ccc(Cl)cc3Cl)CSC12)c1ccccc1 (centres unmarked) [Compound 38, 3-(2-(2,4-Dichlorophenoxy)-5-chlorophenoxy)methyl-7-(1-phenyl-2-aminoacetamido)-3-cephem-4-carboxylic acid] |  |  |  |  | 62 (≈ 0.0976 µM) | 62 (≈ 0.0976 µM) | 0.015 (≈ 2.36e-05 µM) | 0.015 (≈ 2.36e-05 µM) | 1.98 (≈ 3.12 µM) |  | 1.98 (≈ 3.12 µM) | 15.9 (≈ 25 µM) | 15.9 (≈ 25 µM) | 1.98 (≈ 3.12 µM) | >15.9 | >15.9 | 0.031 (≈ 0.0488 µM) | 0.015 (≈ 0.0236 µM) | 
O=C(Cc1cccs1)NC1C(=O)N2C(C(=O)O)=C(COC(=O)Oc3cc(Cl)ccc3Oc3ccc(Cl)cc3Cl)C[S+]([O-])[C@H]12 (some centres unmarked) [Compound 17, 3-((2-(2,4-Dichlorophenoxy)-5-chlorophenoxy)carbonyloxy)methyl-7-(2-thienylacetamido)-1-oxo-3-cephem-4-carboxylic acid] | 0.063 (≈ 9.18e-05 µM) | 0.25 (≈ 0.000364 µM) | 1.03 (≈ 1.5 µM) | > 16.5 |  |  |  |  |  |  |  |  |  |  |  |  |  |  | MIC (E. coli N; [13]): 0.016 µg/mL (≈ 0.0233 µM); MIC (E. coli/TEM-1; Escherichia coli): 0.032 µg/mL (≈ 0.0467 µM)
